Measured values taken from ChEMBL document CHEMBL1150863, “New triterpenoid saponins from the sponge Erylus nobilis” (2001).
≈ marks a conversion by molar mass, not a printed value.

System: K562
Assay: Cytotoxicity against human K562 cells
Format: functional
Details: read-out: LC50 (the source's name)

`C=C(CC[C@@H](C)[C@H]1CC[C@@]2(C(=O)O)C3=C(CC[C@]12C)[C@@]1(C)CCC(O[C@@H]2O[C@H](CO)[C@H](O)[C@H](O[C@@H]4OC[C@H](O)[C@H](O)[C@H]4O)[C@H]2O[C@@H]2O[C@H](CO)[C@@H](O)[C@H](O)[C@H]2NC(C)=O)C(C)(C)[C@@H]1CC3)C(C)(C)C` (some centres undefined) [ERYLOSIDE I] and `C=C(CC[C@@H](C)[C@H]1CC[C@@]2(C(=O)O)C3=C(CC[C@]12C)[C@@]1(C)CCC(O[C@@H]2O[C@H](CO)[C@H](O)[C@H](O[C@@H]4OC[C@H](O)[C@H](O)[C@H]4O)[C@H]2O[C@@H]2O[C@H](CO)[C@@H](O)[C@H](O)[C@H]2NC(C)=O)C(C)(C)[C@@H]1CC3)C(C)C` (some centres undefined) [ERYLOSIDE G] are within 1.5-fold of each other in CC50: 17.9 µg/mL (≈ 18.2 µM) for the first, 22.1 µg/mL (≈ 22.8 µM) for the second.

`C=C(CC[C@@H](C)[C@H]1CC[C@@]2(C(=O)O)C3=C(CC[C@]12C)[C@@]1(C)CCC(O[C@@H]2OC[C@H](O)[C@H](O[C@@H]4OC[C@H](O)[C@H](O)[C@H]4O)[C@H]2O[C@@H]2O[C@H](CO)[C@@H](O)[C@H](O)[C@H]2NC(C)=O)C(C)(C)[C@@H]1CC3)C(C)(C)C` (some centres undefined) [ERYLOSIDE J] and `C=C(CC[C@@H](C)[C@H]1CC[C@@]2(C(=O)O)C3=C(CC[C@]12C)[C@@]1(C)CCC(O[C@@H]2OC[C@H](O)[C@H](O[C@@H]4OC[C@H](O)[C@H](O)[C@H]4O)[C@H]2O[C@@H]2O[C@H](CO)[C@@H](O)[C@H](O)[C@H]2NC(C)=O)C(C)(C)[C@@H]1CC3)C(C)C` (some centres undefined) [ERYLOSIDE H] are within 1.5-fold of each other in CC50: 21.8 µg/mL (≈ 22.9 µM) for the first, 24.8 µg/mL (≈ 26.4 µM) for the second.
